Laboratory results published in ChEMBL document CHEMBL3399990, “Synthesis of mycothiol conjugate analogues and evaluation of their antimycobacterial activity” (Bioorg Med Chem Lett, 2015).
≈ marks a conversion by molar mass, not a printed value.

System: Mycobacterium tuberculosis
Assay: Bacteriostatic activity against Mycobacterium bovis BCG after 7 days by Alamar Blue assay
Assay type: functional
Conditions: variant bovis BCG, 168 h

Row | Compound | MIC [µM]
1 | N[C@@H](CSC(Cl)=C(Cl)Cl)C(=O)N[C@@H]1[C@@H](O)[C@H](O)[C@@H](CO)O[C@H]1SC1CCCCC1 | 125 (≈ 63.7 µg/mL)
2 | CC(C)(C)OC(=O)N[C@@H](CSC(Cl)=C(Cl)Cl)C(=O)N[C@@H]1[C@@H](O)[C@H](O)[C@@H](CO)O[C@@H]1SC1CCCCC1 | 500 (≈ 305 µg/mL)
3 | CC(C)(C)OC(=O)N[C@@H](CSC(Cl)=C(Cl)Cl)C(=O)N[C@@H]1[C@@H](O)[C@H](O)[C@@H](CO)O[C@H]1SC1CCCCC1 | ≥ 1000
4 | N[C@@H](CSC(Cl)=C(Cl)Cl)C(=O)N[C@@H]1[C@@H](O)[C@H](O)[C@@H](CO)O[C@@H]1SC1CCCCC1 | 62.5 (≈ 31.9 µg/mL)
